Experimental data as given in PMC11510563 (Pharmaceutics, 2024).

These molecules were tested against T1, oxytocin receptors (Homo sapiens, UniProt P30559) (assay: calcium fluorimetry reporter assay in Hs 578T cells). Conditions: Fluo-4, L-368,899 0.1-10 μM, SR 49059 0.1 μM, tolvaptan 1 nM.
T1 construct: endogenous in cells; host or cells: Hs 578T breast cancer cells
T1 sequence (P30559 1-389): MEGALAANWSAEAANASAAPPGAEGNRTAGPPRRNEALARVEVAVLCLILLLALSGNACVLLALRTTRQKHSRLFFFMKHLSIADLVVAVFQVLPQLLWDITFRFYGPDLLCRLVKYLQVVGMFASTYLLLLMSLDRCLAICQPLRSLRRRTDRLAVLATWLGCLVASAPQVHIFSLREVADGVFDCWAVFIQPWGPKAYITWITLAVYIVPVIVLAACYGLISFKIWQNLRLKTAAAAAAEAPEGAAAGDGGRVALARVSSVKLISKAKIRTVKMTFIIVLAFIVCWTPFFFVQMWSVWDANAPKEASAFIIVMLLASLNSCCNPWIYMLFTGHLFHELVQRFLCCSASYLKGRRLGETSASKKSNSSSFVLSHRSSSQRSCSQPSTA
Assay type: cell-based
Experimental: Twenty-four hours prior to use, Hs 578T cells were seeded in black 96-well plates (80,000 cells in 100 μL of supplemented DMEM per well). On the test day, changes in intracellular calcium ([Ca^2+]i) were measured using a Fluo-4 no wash calcium assay kit (F36206; Thermo Fisher Scientific). Briefly, medium was aspirated and replaced with 100 μL of 1× dye loading solution (Fluo-4 NW mix in 1× HBSS) containing 20 mM 4-(2-hydroxyethyl)-1piperazineethanesulfonic acid (HEPES, Sigma-Aldrich) and 2.5 mM probenecid, which prevents the active transport of Fluo-4 out of the cells. Cells were incubated for 40 min, and then mean fluorescence across each well was measured every 1.6 s for 90 s using a Flexstation 3 (Molecular Devices, Wokingham, UK) with excitation at 485 nm and emission at 525 nm.

Row | Structure (SMILES) | sensitivity of oxytocin-induced [Ca^2+]i increases to the antagonist
1 | COc1ccc(S(=O)(=O)N2c3ccc(Cl)cc3[C@](O)(c3ccccc3Cl)[C@@H]2C(=O)N2CCC[C@H]2C(N)=O)cc1OC [SR 49059] | not sensitive
2 | Cc1ccccc1N1CCN(S(=O)(=O)C[C@]23CC[C@H](C[C@@H]2NC(=O)[C@@H](N)CCS(C)(=O)=O)C3(C)C)CC1 [L-368,899] | sensitive to blockade
3 | Cc1ccccc1C(=O)Nc1ccc(C(=O)N2CCCC(O)c3cc(Cl)ccc32)c(C)c1 (stereo not drawn) [tolvaptan] | not sensitive
